Legend:
[1] = system: p-p38, p-MK2, and p-Hsp27; experiment: Immunoblot of SN38-induced p-p38, p-MK2, p-Hsp27 and apoptosis with upstream kinase inhibitors; format: cell-based, human; conditions: inhibitor in combination with SN38
Procedure: FIG. 3A contains immunoblot images showing p-p38, p-MK2, and p-Hsp27 activation in MIA paca-2 and Pa01c cells treated with SN38 10 μM for 16 hours alone or with IRAK4 inhibitor 4 μM, HCQ 20 μM, ATM inhibitor 20 μM, ATR inhibitor 20 μM, or TAK1 inhibitor 2 μM.
FIG. 3B contains immunoblot images of MIA paca-2 and Pa01c cells treated with SN38 10 μM alone for 16 hours or in combination with TAK1 inhibitor 2 μM for 16 hours.
To investigated the mechanism by which DNA damage activates MK2 and Hsp27, PDAC cells were treated with SN38 alone or in combination with inhibitors of IRAK4 (PF06650833), TLR9 (hydroxychloroquine, or HCQ), ATM (KU55933), ATR (VE821), and TAK1 (5z-7-oxozeanol).

TNFα mRNA expression [2] = experiment: qPCR of cytokine expression after SN38, Pa01c; format: cell-based, human; conditions: for SN38-induced induction of TNFα: inhibitor 2 μM before SN38
Procedure: (§1) FIG. 3D contains graphs summarizing the results of qPCR for TNFα, TNFβ, TGFβ, IL-1α, and IL-1β in Mia paca-2 (right) and Pa01c (left) cells treated with control or SN38 10 μM for 16 hours. P values from two-away ANOVA with Dunnett's multiple comparison test and error bars are mean+SEM. ***P<0.0002, ****P<0.0001.
FIG. 3F is a graph summarizing the results of qPCR showing TNFα expression in Pa01c cells following treatment with SN38 10 μM alone for 16 hours, or in combination with TAKli 2 μM or IKKi 2 μM for 24 hours prior to treatment with SN38 10 μM for 16 hours. P values from two-away ANOVA with Dunnett's multiple comparison test and error bars are mean+SEM. *P<0.0247, **P<0.0025.
(§2) RNAzol RT (Sigma) was used to isolate total RNA. cDNA was made with High Capacity cDNA reverse transcription kit (Thermo Fisher Scientific, 4368814). qPCR was performed with SYBR-Green reagent (Applied Biosciences). All experiments were performed in biological duplicates or triplicates (n=2, 3).
(§3) Because TAK1 is known to be a downstream kinase of TNF, TGFβ, and IL-1 receptors, a candidate approach was used to survey expression of TNFα/β, TGFβ, and IL-1α/β.

PDAC cells = experiment: Apoptosis after SN38 with autophagy inhibition (HCQ, Beclin-1 ablation); format: cell-based, human
Description: FIG. 4D contains immunoblot images of MIA paca-2 and Pa01c cells following treatment with SN38, HCQ, or the combination. P values from two-way ANOVA with Sidak's multiple comparison test and error bars are mean+SEM. ***P=0.0009, *P=0.035.
FIG. 4F contains immunoblot images of MIA paca-2 control cells or Beclin 1 (BECN1) knockout treated with SN38, ATI-450, or the combination.
FIG. 4G contains scatter plots (left) and a graph summarizing quantification of a FACS analysis of MIA paca-2 control cells or Beclin 1 knockout cells treated with control (DMSO) or SN38 10 μM for 24 hours; graphic quantification of annexin V positive cells on the right.

p-Hsp27 [3] = experiment: Immunoblot of p-Hsp27 with MK2 inhibitors (SN38 or UV); format: cell-based, human; conditions: at baseline and following SN38 treatment
Procedure: FIG. 2E contains immunoblot images showing PARP cleavage of MIA paca-2 and Pa01c cells treated as in FIG. 1D.
FIG. 2H contains immunoblot images of p-p38, p-MK2, and p-Hsp27 from MIA paca-2 and Pa01c cells treated with 40 J/m2 of ultraviolet light (UV) alone or with MK2 inhibitor PF-3644022.
FIG. 2I contains immunoblot images of p-MK2 and p-Hsp27 from Pa01c cells treated with 40 J/m2 UV light, alone or with MK2 inhibitor ATI-450.
Western blotting was performed according to standard procedures. Cells grown in culture were washed twice in ice-cold 1×PBS and lysed in ice-cold RIPA buffer ([…]) containing 1× protease inhibitor (Sigma), NaVO3, Na pyrophosphate, and NaF. Protein lysates were quantified by Bradford assay and suspended in 6×SDS sample buffer, followed by boiling for 5 min at 95 C. 40 ug of protein lysate was resolved on SDS-PAGE and blotted on nitrocellulose membrane. Antibodies used included p38 MAPK (CST 8690S), p38 MAPK T180/Y182 (CST 9215S), MK2 total (CST 12155S), MK2 T334 (CST 3041S), MK2 T222 (3316S), Hsp27 total (CST 2042S), Hsp27 phos S82 (9709S), ? H2Ax (CST 9718S), JNK T183/Y185 (CST 4668), GSK3 beta phos S9 (CST 5558), ATR phos T1989 (CST 58014), ATM phos 51981 (CST 4526), AMPKα1 phos T172 (CST 2335T), and GAPDH (sc-47724). […]

[4] = system: non-pancreatic cancer cell lines (colon, gastric, breast); experiment: Apoptosis of non-pancreatic cancer cell lines with SN38 and ATI-450; format: cell-based; conditions: combination SN38 and ATI-450
KPPC mice [5] = experiment: Autochthonous KPPC model, survival and tumor analysis; format: in vivo
Procedure: (§4) Tumors were formalin-fixed, paraffin-embedded, sectioned, and stained with hematoxylin and eosin (H&E). Immunohistochemistry (IHC) staining was performed using the following antibodies: p-Hsp27 S82 (CST cat #9709S), p-MK2 T334 (CST cat #3041S), p-p38 T180/Y182 (CST cat #9215S). Ten 200× or 400× power fields were analyzed per tumor independently by two individuals, and data were presented as mean+SEM of collated data. IHC sections were interpreted independently by two individual reviewers and representative data agreeable to all members were presented.
(§5) KPPC (p48-Cre/p53Flox/Flox LSL-KRASG12D) mice were created as described in previous publications. Treatment began six weeks after birth when tumors spontaneously form in vivo. FOLFIFINOX treatment was given by weekly intraperitoneal (I.P.) injection of 5-FU 25 mg/kg, irinotecan 17.5 mg/kg, and oxaliplatin 3.3 mg/kg. ATI-450 treatment was given as drug-impregnated chow, ad libitum, starting six weeks after birth; when given in combination with chemotherapy, ATI-450 chow was begun the day prior to initiation of chemotherapy.
All mice were treated beginning at 6 weeks of age until humane endpoints were reached.

PDAC lines = experiment: Recombinant TNFα treatment of PDAC lines: p-Hsp27, PARP cleavage, Annexin V; format: cell-based, human; conditions: for TNFα-induced p-Hsp27 / apoptosis: inhibitor plus TNFα
[6] = patients with rheumatoid arthritis; cited from earlier work
MIA paca-2 cells = experiment: FACS Annexin V and PI staining, MK2 inhibitor with or without SN38; format: cell-based, human; conditions: for apoptosis: MK2 inhibitor combined with SN38
Description: P values from one-way ANOVA with Dunnett's multiple comparison test and error bars are mean+SEM. **P<0.0021, ****P<0.0001.

KPPC mice [7] = experiment: KPPC mice, ATI-450 chow for two weeks, histologic analysis of pancreata; format: in vivo
Procedure: as §4, §5
To complement the human xenograft models, which lacked the desmoplastic tumor microenvironment and intact immune system essential for PDAC development, an autochthonous KPPC (p48-Cre; p53flox/flox; LSL-KRASG12D) mouse model was treated and observed. KPPC mice were treated with vehicle or ATI-450 ad libitum in chow starting from 6 weeks-old of age when foci of invasive PDAC start to appear. After two weeks of treatment, all mice were euthanized and their pancreata were subjected to histologic analysis.

autophagy markers = experiment: Autophagy markers (western blot, LC3 reporter) after SN38 with or without MK2 inhibitors; format: cell-based, human; conditions: for SN38-induced p-Beclin1 and LC3-II: MK2 inhibitor with SN38
p-Hsp27 [8] = experiment: Immunoblot of p-MK2 and p-Hsp27 after individual chemotherapy agents; format: cell-based, human; conditions: for induction of p-MK2 and p-Hsp27: PDAC lines tested
Procedure: Western blotting was performed according to standard procedures. Cells grown in culture were washed twice in ice-cold 1×PBS and lysed in ice-cold RIPA buffer (10 nM Tris pH 7.4, 50 nM NaCl, 0.05% SDS, 0.05% Triton X-100, 0.5% sodium deoxycholate, and 10 nM EDTA) containing 1× protease inhibitor (Sigma), NaVO3, Na pyrophosphate, and NaF. Protein lysates were quantified by Bradford assay and suspended in 6×SDS sample buffer, followed by boiling for 5 min at 95 C. 40 ug of protein lysate was resolved on SDS-PAGE and blotted on nitrocellulose membrane. Antibodies used included p38 MAPK (CST 8690S), p38 MAPK T180/Y182 (CST 9215S), MK2 total (CST 12155S), MK2 T334 (CST 3041S), MK2 T222 (3316S), Hsp27 total (CST 2042S), Hsp27 phos S82 (9709S), ? H2Ax (CST 9718S), JNK T183/Y185 (CST 4668), GSK3 beta phos S9 (CST 5558), ATR phos T1989 (CST 58014), ATM phos 51981 (CST 4526), AMPKα1 phos T172 (CST 2335T), and GAPDH (sc-47724). Blots were imaged using chemiluminescent substrate (Thermo Scientific).

TNFα mRNA expression [9] = experiment: qPCR of cytokine expression after SN38, MIA Paca-2; format: cell-based, human; conditions: MIA Paca-2 cells, SN38 10 μM for 16 hours
Procedure: as §1, §2, §3

TNFα protein = experiment: TNFα ELISA of Pa01c supernatant; format: cell-based, human; conditions: Pa01c cells, SN38 10 μM for 16 hours
Procedure: FIG. 3E is a graph summarizing TNFα ELISA of Pa01c cells treated with control or SN38 10 μM for 16 hours overnight. P values from one-way ANOVA with Dunnett's multiple comparison test and error bars are mean+SEM. *P<0.0332.
as §3

Question: What does the source list for `COc1cc(O)c2c(c1)/C=C/C[C@H](O)[C@H](O)C(=O)/C=C\C[C@H](C)OC2=O` [5z-7-oxozeanol, (5Z)-7-Oxozeaenol]?
Answer: SN38-induced p-p38, p-MK2, and p-Hsp27 [1]: completely blocked; apoptotic effect of SN38 [1]: potentiated; SN38-induced induction of TNFα (TNFα mRNA expression [2]; Pa01c cells): abrogated

Question: For `Cc1cnc(-c2ccnc(C(C)(C)O)n2)cc1-n1c(C)cc(OCc2ncc(F)cc2F)c(Cl)c1=O` [ATI-450], which apoptosis (PDAC cells; Beclin-1-ablated cells, added to SN38) is on record?
Answer: Its apoptosis is “only marginally increased apoptosis”.

Question: What about the p-Hsp27 (p-Hsp27 [3]) of the same compound?
Answer: The p-Hsp27 was “replicated”.

Question: What about the apoptosis [4] of the same compound?
Answer: Its apoptosis is “sensitized the cells to apoptosis”.

Question: What about the PDAC lesions (KPPC mice [5]; addition of ATI-450 to FOLFIRINOX) of the same compound?
Answer: The PDAC lesions was “almost completely ablated”.

Question: And the “tumor histology (H&E)” value (KPPC mice [5]; mouse, in vivo)?
Answer: The value was “smaller but retained a significant fraction of overt PDAC”.

Question: What about the survival (KPPC mice [5]; treated from 6 weeks of age until humane endpoints) of the same compound?
Answer: Its survival is “improved survival significantly greater than vehicle”.

Question: And the “p-Hsp27 (IHC), in vivo on-target effect” value (KPPC mice [5]; tumor sections)?
Answer: Its value is “completely suppressed”.

Question: And the “TNFα-induced p-Hsp27” value (PDAC lines)?
Answer: Its value is “abrogated”.

Question: What about the apoptosis (PDAC lines) of the same compound?
Answer: Its apoptosis is “augmented apoptosis”.

Question: What about the tolerability [6] of the same compound?
Answer: The tolerability was “well-tolerated”.

Question: What about the apoptosis (MIA paca-2 cells) of the same compound?
Answer: The apoptosis was “replicated”.

Question: What about the “PDAC burden of pancreata” value (KPPC mice [7]; ATI-450 in chow from 6 weeks of age, two weeks) of the same compound?
Answer: The value was “significantly lower PDAC burdens”.

Question: What about the “fractions of normal or early PanIN lesions” value (KPPC mice [7]; ATI-450 in chow, two weeks) of the same compound?
Answer: Its value is “relatively higher fractions”.

Question: And the “tumor fibrosis by Sirius Red staining” value (KPPC mice [7]; ATI-450 in chow, two weeks)?
Answer: The value was “significantly less fibrotic”.

Question: What about the “progression of PDAC” value (KPPC mice [7]; single agent) of the same compound?
Answer: Its value is “significantly delayed”.

Question: What about the “SN38-induced p-Beclin1 and LC3-II” value (autophagy markers) of the same compound?
Answer: The value was “robustly suppress”.

Question: Which “induction of p-MK2 and p-Hsp27” value (p-Hsp27 [8]) does the source give for `Nc1ccn([C@@H]2O[C@H](CO)[C@@H](O)C2(F)F)c(=O)n1` [Gemcitabine] here?
Answer: Its value is “much lower degree”.

Question: For `O=C(Nc1cc(C(F)(F)F)cc(C(F)(F)F)c1)c1cc(Cl)ccc1O` [IMD0354], which “SN38-induced induction of TNFα” value (TNFα mRNA expression [2]; Pa01c cells) is on record?
Answer: The value was “abrogated”.

Question: What does the source list for `Cc1ccc(-c2ccc3c(ccc4sc5c(c43)NC[C@@H](C)NC5=O)n2)cn1` [PF-3644022]?
Answer: p-Hsp27 (p-Hsp27 [3]): abolished; toxicity to PDAC cells (MIA paca-2 cells; MK2 inhibitor alone): not toxic; apoptosis (MIA paca-2 cells): significantly increased apoptosis; SN38-induced p-Beclin1 and LC3-II (autophagy markers): robustly suppress

Question: Which results are given for `CC(C)(C)C(=O)N1N=CC[C@H]1c1ccccc1` [RIPK inhibitor]?
Answer: SN38-induced p-p38, p-MK2, and p-Hsp27 [1]: not blocked; TNFα-induced p-Hsp27 (PDAC lines): did not block p-Hsp27; apoptosis (PDAC lines): did not block p-Hsp27 or alter apoptosis

Question: Which “activation of p-Hsp27” value (p-Hsp27 [8]; MIA Paca-2 cells, vehicle, 5-FU, SN38 or oxaliplatin individually) does the source give for `CCc1c2c(nc3ccc(O)cc13)-c1cc3c(c(=O)n1C2)COC(=O)[C@]3(O)CC` [SN38] here?
Answer: The value was “most strongly activates Hsp27”.

Question: What about the “induction of p-MK2 and p-Hsp27” value (p-Hsp27 [8]) of the same compound?
Answer: The value was “potently induced”.

Question: And the TNFβ expression (TNFα mRNA expression [2]; Pa01c cells following SN38)?
Answer: Its TNFβ expression is “elevated”.

Question: And the “TNFα mRNA expression” value (TNFα mRNA expression [2]; Pa01c cells, SN38 10 μM for 16 hours)?
Answer: The value was roughly 30 fold.

Question: What about the “TNFα mRNA expression” value (TNFα mRNA expression [9]) of the same compound?
Answer: The value was roughly 30 fold.

Question: And the “TNFα protein in supernatant” value (TNFα protein)?
Answer: Its value is “increased TNFα protein”.

Question: And the LC3-GFP reporter expression (autophagy markers; PDAC cells)?
Answer: The LC3-GFP reporter expression was “significantly decreased”.

Question: And the “autophagy markers: p-ULK1 (S555), p-AMPKα (T172), p-Beclin1 (S90), p62” value (autophagy markers; western blots)?
Answer: Its value is “markedly induced”.

Question: With `CCN(CCO)CCCC(C)Nc1ccnc2cc(Cl)ccc12` (stereo not drawn) [hydroxychloroquine] as the compound, how does the apoptosis (PDAC cells; PDAC cells treated with SN38 and HCQ) read?
Answer: The apoptosis was “significantly higher levels of apoptosis”.

Question: For TNFα, which “apoptosis (PARP cleavage and Annexin V staining)” value (PDAC lines; recombinant TNFα alone) is on record?
Answer: The value was “induced apoptosis”.

Question: And the p-Hsp27 (PDAC lines; recombinant TNFα alone)?
Answer: Its p-Hsp27 is “upregulated”.

From patent US20230087078A1, “COMPOSITIONS AND METHODS FOR THE TREATMENT OF PANCREATIC CANCER” (Washington University, priority 2020, published 2023)
